This passage reports melting point, EC50 and Emax results from patent publication US9586963B2 (GENFIT, priority 2011, dated 2017).

In general, melting point refers to the temperature of the solid-liquid transition. Usually EC50 stands for the concentration giving half of the maximal effect. A low value points to greater potency.

Series [1] concerns the target T1, Rev-Erb alpha (Homo sapiens, UniProt P20393).
T1 sequence (P20393 284-614 limits assumed): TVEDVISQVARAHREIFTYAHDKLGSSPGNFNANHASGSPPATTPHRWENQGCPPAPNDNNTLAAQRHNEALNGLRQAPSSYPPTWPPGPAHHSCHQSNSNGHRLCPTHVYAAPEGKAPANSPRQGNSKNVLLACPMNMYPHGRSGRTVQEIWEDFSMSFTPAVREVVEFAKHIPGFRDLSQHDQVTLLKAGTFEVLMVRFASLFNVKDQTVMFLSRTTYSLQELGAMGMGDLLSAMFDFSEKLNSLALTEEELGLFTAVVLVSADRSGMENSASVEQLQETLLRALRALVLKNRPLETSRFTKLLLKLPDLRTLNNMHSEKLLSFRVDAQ
Nature of the series: M2H (mammalian two-hybrid) cellular activation assay of Rev-Erb alpha. It counts as cell-based. The note with it: M2H assay, HEK293 cells; for EC50: Gal4-Rev-Erb alpha / VP16-NCoR, luciferase reporter; for Emax: relative to DMSO, at the tested dose, read-out: TOP activation. Put shortly: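 Six-point dose-response, 18 h, 37 °C, serum-free, in HEK293 cells carrying a Gal4-RE luciferase reporter with Gal4-Rev-Erb alpha or beta plus VP16-NCoR (corepressor interaction readout). EC50 and TOP activation (%) derived from luminescence across four experiments.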

Turning to `FC(F)(F)c1ccc(-c2ccccc2)c(Oc2ccc3nnc(Cl)n3n2)c1` [Cpd.4-33, 6-(4-trifluoromethyl-biphenyl-2-yloxy)-3-chloro-[1,2,4]triazolo[4,3-b]pyridazine], the melting point was determined as 138.9 °C. In addition, the EC50 in series [1] is less than 100 nM.
For the molecule `CN(Cc1ccccc1)Cc1ccc(-c2ccccc2)c(Oc2ccc3nnc(Cl)n3n2)c1` [Cpd.4-60, 3-chloro-6-(4-N-methyl-N-benzylaminomethyl-biphenyl-2-yloxy)-[1,2,4]triazolo[4,3-b]pyridazine], the melting point was in the range of 119 to 122 °C. In addition, the concentration giving a half-maximal response (EC50) in series [1] lay within 100 to 1000 nM.
Taken in the same sequence, the figures for `CC(C)c1cc2nnc(Cl)n2nc1Oc1cc(C(F)(F)F)ccc1-c1ccccc1` [Cpd.5-11, 3-chloro-7-isopropyl-6-(4-trifluoromethyl-biphenyl-2-yloxy)-[1,2,4]triazolo[4,3-b]pyridazine] were 55 to 58 °C and 100 to 1000 nM.
The molecule `Fc1ccc(Oc2ccc3nnc(C(F)(F)F)n3n2)c(-c2ccccc2)c1` [Cpd.4-141, 3-(trifluoromethyl)-6-(5-fluorobiphenyl-2-yloxy)-[1,2,4]triazolo[4,3-b]pyridazine] returned a melting point of 85.3 to 87.7 °C. The EC50 in series [1] was in the range of 1000 to 6000 nM.
Taken in the same sequence, the figures for `Oc1cccc(-c2cc(F)c(F)cc2Oc2ccc3nnc(C(F)(F)F)n3n2)c1` [Cpd.4-151, 3-(trifluoromethyl)-6-(4,5-difluoro-3′-hydroxybiphenyl-2-yloxy)-[1,2,4]triazolo[4,3-b]pyridazine] were 193 to 195 °C and 1000 to 6000 nM.
Taken in the same sequence, the figures for `Fc1ccc(Oc2ccc3nnc(Cl)n3n2)c(-c2ccc(F)c(F)c2)c1` [Cpd.4-115, 3-chloro-6-(5,3′,4′-trifluorobiphenyl-2-yloxy)-[1,2,4]triazolo[4,3-b]pyridazine] were 147.8 °C and 100 to 1000 nM.
Taken in the same sequence, the figures for `CCN(CC)c1ccc(Oc2ccc3nnc(Cl)n3n2)c(-c2ccccc2)c1` [Cpd.4-55, 3-chloro-6-(5-diethylamino-biphenyl-2-yloxy)-[1,2,4]triazolo[4,3-b]pyridazine] were 55 to 58 °C and less than 100 nM.
On to `COc1nccc(C)c1-c1ccc(C(F)(F)F)cc1Oc1cc(C)c2nnc(Cl)n2n1` [Cpd.5-39, 3-chloro-8-methyl-6-((2-(2-methoxy-4-methylpyridin-3-yl))-5-(trifluoromethyl)phenoxy)-[1,2,4]triazolo[4,3-b]pyridazine], for which the melting point was 139 to 141 °C. In series [1], this molecule registered a half-maximal effective concentration (EC50) of 1000 to 6000 nM.
For the molecule `Clc1nnc2ccc(Oc3cc(NCCC4CCCCC4)ccc3-c3ccccc3)nn12` [Cpd.4-185, 3-chloro-6-(4-((cyclohexylethyl)amino)biphenyl-2-yloxy)-[1,2,4]triazolo[4,3-b]pyridazine], the melting point fell in the range of 154 to 159 °C. In addition, the EC50 in series [1] lay within 100 to 1000 nM.
In the same order, the values of `Cc1cccc(-c2ccccc2Oc2ccc3nnc(Cl)n3n2)c1` [Cpd.4-132, 3-chloro-6-(3′-methylbiphenyl-2-yloxy)-[1,2,4]triazolo[4,3-b]pyridazine] are 51 °C and 100 to 1000 nM.
Taken in the same sequence, the figures for `COc1ncccc1-c1ccc(C(F)(F)F)cc1Oc1cc(C)c2nnc(Cl)n2n1` [Cpd.5-23, 3-chloro-6-(2-(2-methoxypyridin-3-yl)-5-(trifluoromethyl)phenoxy)-8-methyl-[1,2,4]triazolo[4,3-b]pyridazine] were 156 to 158 °C and 1000 to 6000 nM.
In the same order, the values of `Clc1nnc2ccc(Oc3cc(CN4CCOCC4)ccc3-c3ccccc3)nn12` [Cpd.4-64, 3-chloro-6-(4-morpholinomethyl-biphenyl-2-yloxy)-[1,2,4]triazolo[4,3-b]pyridazine] are 162 to 163 °C and 1000 to 6000 nM.
`COc1ncc(F)cc1-c1ccc(C(F)(F)F)cc1Oc1ccc2nnc(Cl)n2n1` [Cpd.4-131, 3-chloro-6-((2-(2-methoxy-5-fluoropyridin-3-yl))-5-(trifluoromethyl)phenoxy)-[1,2,4]triazolo[4,3-b]pyridazine] gave a melting point of 60 to 68 °C. In series [1], the EC50 lay in the range of 100 to 1000 nM.
In the same order, the values of `Cc1ccc(Oc2ccc3nnc(Cl)n3n2)c(-c2ccccc2)c1` [Cpd.4-27, 6-(5-methyl-biphenyl-2-yloxy)-3-chloro-[1,2,4]triazolo[4,3-b]pyridazine] are 144.5 °C and less than 100 nM.
`Cc1cccc(-c2cc(F)ccc2Oc2ccc3nnc(Cl)n3n2)c1` [Cpd.4-135, 3-chloro-6-(5-fluoro-3′-methylbiphenyl-2-yloxy)-[1,2,4]triazolo[4,3-b]pyridazine] displayed a melting point of 94.5 to 95.1 °C. Besides, in series [1], the EC50 fell in the range of 100 to 1000 nM.
Take `COc1ncc(-c2cc(Cl)ccc2Oc2nn3c(Cl)nnc3cc2C)cn1` [Cpd.5-56, 3-chloro-6-(4-chloro-2-(2-methoxypyrimidin-5-yl)phenoxy)-7-methyl-[1,2,4]triazolo[4,3-b]pyridazine]: the melting point fell in the range of 189 to 192 °C. In series [1], the EC50 lay within 1000 to 6000 nM.
In the same order, the values of `Clc1ccc(-c2cccc(Oc3ccc4nnc(Cl)n4n3)c2)cc1` [Cpd.3-12, 6-(4′-chloro-biphenyl-3-yloxy)-3-chloro-[1,2,4]triazolo[4,3-b]pyridazine] are 128 °C and 1000 to 6000 nM.
In the same order, the values of `CCc1nnc2cc(C)c(Oc3cc(C(F)(F)F)ccc3-c3cncnc3)nn12` [Cpd.5-43, 3-ethyl-7-methyl-6-(2-(pyrimidin-5-yl)-5-(trifluoromethyl)phenoxy)-[1,2,4]triazolo[4,3-b]pyridazine] are 149 to 150 °C and 1000 to 6000 nM.
As to `Cc1cc(Oc2ccc(Cl)cc2-c2cncnc2)nn2c(Cl)nnc12` [Cpd.5-58, 3-chloro-6-(4-chloro-2-(pyrimidin-5-yl)phenoxy)-8-methyl-[1,2,4]triazolo[4,3-b]pyridazine], the melting point lay in the range of 208 to 210 °C. Besides, in series [1], the concentration giving a half-maximal response (EC50) fell in the range of 1000 to 6000 nM.
In turn, `Oc1cccc(-c2ccccc2Oc2ccc3nnc(Cl)n3n2)c1` [Cpd.4-21, 6-(3′-hydroxy-biphenyl-2-yloxy)-3-chloro-[1,2,4]triazolo[4,3-b]pyridazine] came in with a melting point of 203.7 °C. Further, the EC50 in series [1] is 100 to 1000 nM.
For the molecule `Clc1nnc2ccc(Oc3ccc(CN4CCCCC4)cc3-c3ccccc3)nn12` [Cpd.4-156, 3-chloro-6-(5-piperidin-1-ylmethylbiphenyl-2-yloxy)-[1,2,4]triazolo[4,3-b]pyridazine], the melting point was in the range of 70 to 70.4 °C. Moreover, in series [1], the EC50 is greater than 6000 nM and the Emax is greater than 130%.
In the case of `COc1ccc(C(=O)c2ccccc2)c(Oc2ccc3nnc(Cl)n3n2)c1` [Cpd.4-144, 3-chloro-6-(2-benzoyl-5-methoxy-phenoxy)-[1,2,4]triazolo[4,3-b]pyridazine], the melting point is 175 to 176 °C. This molecule also came in with an EC50 in series [1] of 100 to 1000 nM.
In turn, `COc1ncccc1-c1ccc(C(F)(F)F)cc1Oc1nn2c(Cl)nnc2cc1C` [Cpd.5-24, 3-chloro-7-methyl-6-((2-(2-methoxypyridin-3-yl))-5-(trifluoromethyl)phenoxy)-[1,2,4]triazolo[4,3-b]pyridazine] displayed a melting point of 176 to 178 °C. The same molecule registered a concentration for a half-maximal effect (EC50) in series [1] of 1000 to 6000 nM.
Taken in the same sequence, the figures for `COc1ncc(-c2cc(Cl)ccc2Oc2nn3c(Cl)nnc3c3ccccc23)cn1` [Cpd.5-57, 3-chloro-6-(4-chloro-2-(2-methoxypyrimidin-5-yl)phenoxy)-[1,2,4]triazolo[3,4-a]phthalazine] were 213 to 215 °C and 100 to 1000 nM.
Molecule `COc1ncc(-c2cc(Cl)ccc2Oc2ccc3nnc(Cl)n3n2)cn1` [Cpd.4-195, 3-chloro-6-(4-chloro-2-(2-methoxypyrimidin-5-yl)phenoxy)-[1,2,4]triazolo[4,3-b]pyridazine] yielded a melting point of 210 to 211 °C. In addition, in series [1], the EC50 is greater than 6000 nM and the Emax is greater than 130%.
Take `COc1cccc(-c2cc(F)c(F)cc2Oc2ccc3nnc(C(F)(F)F)n3n2)c1` [Cpd.4-150, 3-(trifluoromethyl)-6-(4,5-difluoro-3′-methoxybiphenyl-2-yloxy)-[1,2,4]triazolo[4,3-b]pyridazine]: the melting point was 52 to 55 °C. This molecule also registered an EC50 in series [1] of 1000 to 6000 nM.
For `FC(F)(F)c1ccc(-c2cccnc2)c(Oc2nn3c(Cl)nnc3c3ccccc23)c1` [Cpd.5-15, 3-chloro-6-(2-(pyridin-3-yl)-5-(trifluoromethyl)phenoxy)-[1,2,4]triazolo[3,4-a]phthalazine], the melting point was in the range of 175 to 177 °C. The same molecule had a half-maximal effective concentration (EC50) in series [1] of less than 100 nM.
In the same order, the values of `Fc1ccc(Oc2ccc3nnc(Cl)n3n2)c(-c2ccccc2)c1` [Cpd.4-15, 6-(5-fluoro-biphenyl-2-yloxy)-3-chloro-[1,2,4]triazolo[4,3-b]pyridazine] are 148.4 °C and 100 to 1000 nM.
With `COc1cccc(-c2cc(F)ccc2Oc2ccc3nnc(C(F)(F)F)n3n2)c1` [Cpd.4-149, 3-(trifluoromethyl)-6-(5-fluoro-3′-methoxybiphenyl-2-yloxy)-[1,2,4]triazolo[4,3-b]pyridazine], the melting point was 73.7 to 76.9 °C. In addition, in series [1], the 50% effective concentration (EC50) lay within 1000 to 6000 nM.
